Laboratory results published in patent US20210261857A1, “PARTICLE COMPRISING AT LEAST ONE FERRIMAGNETIC OR FERROMAGNETIC IRON OXIDE NANOPARTICLE ASSOCIATED WITH AT LEAST ONE COMPOUND FOR MEDICAL OR COSMETIC USE” (NANOBACTERIE, priority 2015, published 2021).

Columns and labels:
Type in all cases: physicochemical
[1] = Luminescence of heated DiI and BNF-DiI suspensions and supernate; details: excited at 530 nm
Description: A suspension of DiI of concentration 5.4 μM and pH 7 is heated at various temperatures lying between 20 and 90° C. for 30 minutes using a dry heating bath. […] When a suspension containing BNF-DiI mixed in water at a concentration of 80 μg/mL in iron oxide is heated at temperatures lying between 20 and 90° C. using a dry heating bath, the behavior is different from that observed with DiI alone.
In order to determine if the luminescence variation of the BNF-DiI is due to the dissociation of DiI from the BNF, the maximum intensity of luminescence of the supernate of BNF-DiI and DiI alone, excited at 530 nm, were measured for suspensions containing BNF-DiI or DiI alone heated at different temperatures between 20 and 90° C. for a period of 0 to 30 minutes.

[2] = Luminescence as a function of pH (pH 2 to 12), suspension, supernate and rhodamine B alone; details: 125 μM, excited at 550 nm
Description: A suspension of MCR400 at 400 μg/mL in iron oxide and a 125 μM solution of rhodamine B were mixed with solutions of hydrochloric acid or with solutions of sodium hydroxide at concentrations ranging from 0.1 to 12 M to adjust the pH to values between 2 and 12. The samples containing the MCR400 suspensions thus treated are then placed against a magnet of 0.6 T for 12 hours at 4° C. and the supernate of the treated MCR400 suspensions is removed. The maximum luminescence intensity of the supernate of the MCR400 suspension, excited at 550 nm, decreases from 140 a.u. at pH 2 down to 20 a.u. at pH 12. On the other hand, the maximum luminescence intensity of rhodamine B alone, excited at 550 nm, increases from 440 a.u. up to 580 a.u. […] In contrast, for 2<pH<4, the emission wavelengths of rhodamine B alone, MCR400 and the supernate of MCR400, are similar, lying between 580 nm and 584 nm. These behaviors could be explained by the association of rhodamine B with magnetosomes for pH>4 and the dissociation of rhodamine B from magnetosomes for pH<4.

[3] = Luminescence of heated rhodamine B solution and MCR400 suspension (temperature probe); details: temperature increased from 20° C. to 80° C., 5 μM, pH 7, heated 30 minutes, excited at 405 nm
Description: A solution of rhodamine B of concentration 5 μM and pH 7 contained in a volume of 800 μL is excited at 405 nm and heated at different temperatures for 30 minutes using a dry heating bath. When the temperature of this solution increases from 20° C. to 80° C., the wavelength corresponding to the maximum luminescence of rhodamine B remains relatively unchanged while the maximum luminescence intensity of rhodamine B decreases strongly by 73% in agreement with previously published results (Journal of Luminescence, Vol. 27, p. 455 (1982)). A suspension of MCR400 at a concentration of 250 μg/mL in iron oxide and pH 7 contained in a volume of 800 μl is excited at 405 nm and heated at different temperatures for 30 minutes using a dry hot-water heating bath. MCR400 excited at 405 nm produce maximum luminescence intensity at 569 nm. The behavior of the MCR400 is different from that of rhodamine B. Indeed, between 20° C. and 80° C., the maximum of the luminescence peak is observed at 569 nm and the luminescence intensity of the MCR400 increases sharply by 66%. The luminescence intensity of rhodamine B would initially be quenched when rhodamine B is associated with magnetosomes and would increase with the dissociation of rhodamine B from magnetosomes under the effect of a temperature increase.

[4] = Luminescence after irradiation with a faxitron irradiator (irradiation probe); details: 0 to 1350 Gy, 125 μM rhodamine B, pH 7, 25° C., excited at 550 nm, measured at 578 nm
Description: Three suspensions are maintained at pH 7 and at a temperature of 25° C., containing either 400 μg/mL in iron oxide of MCR400, 125 μM of rhodamine B, or 400 μg/mL in iron oxide of MC mixed with 125 μM of rhodamine B. These suspensions are irradiated with a faxitron irradiator dosimeter (160 kV, 6.3 mA without filter, 67.5 Gy/min). The irradiation doses are between 0 and 1350 Gy. […] In contrast, when the MCR400 suspension is irradiated, the luminescence of the supernate of this suspension, excited at 550 nm and measured at 576 nm, increases sharply from 250 a.u. in the absence of irradiation to 600-950 a.u. in the presence of an irradiation larger than 250 Gy.

[5] = Fluorescence lifetime by the frequency method; details: excitation 445 nm, MCR400 5 mg/mL in iron oxide, rhodamine B 5 μM
Description: Life time experiments were carried out using the frequency method. The set-up uses a modulated laser diode as excitation source, a confocal fluorescence spectroscope, a control unit for intensifying images and a camera, frequency generators and a spectrograph controller. The modulation frequency has been varied between 30 and 180 MHz. The excitation wavelength is 445 nm. The laser light is modulated by a radio frequency signal. An interference filter suppresses parasitic fluorescence from the laser diode and a high pass filter is placed in the detection path to decrease scattering. A volume of 1 mL of a suspension of MCR400 at 5 mg/mL in iron oxide and rhodamine B at a concentration of 5 μM was placed in a dry heating bath for 5 minutes to heat the suspensions at 25° C. and at 45° C. 10 μl of a suspension of MCR400 at 5 mg/ml in iron oxide and rhodamine B at a concentration of 5 μM were deposited on a slide and then placed in front of an objective ×40 to measure the fluorescence lifetime of each suspension.

SMILES	maximum luminescence intensity as a function of heating temperature ([1]; heated 30 minutes, DiI 5.4 μM pH 7, BNF-DiI 80 μg/mL in iron oxide)	luminescence intensity of the substance alone on heating ([1]; heated between 20 and 90° C. for 0 to 30 minutes)	maximum luminescence intensity of the solution ([2]; end of the pH increase (pH range 2 to 12)) [a.u.]	maximum luminescence intensity of the solution ([2]; start of the pH increase (pH range 2 to 12)) [a.u.]	decrease of maximum luminescence intensity [3] [%]	luminescence on irradiation (solution, or supernate of the mixture) [4]	fluorescence lifetime ([5]; 25° C.) [ns]	fluorescence lifetime ([5]; 45° C.) [ns]
CCCCCCCCCCCCCCCCCCN1C(=CC=CC2=[N+](CCCCCCCCCCCCCCCCCC)c3ccccc3C2(C)C)C(C)(C)c2ccccc21.[O-][Cl+3]([O-])([O-])[O-] [DiI, 1,1′-Dioctadecyl-3,3,3′,3′-tetramethyl-indocarbocyanine perchlorate]	increases between 20 and 60 °C and then decreases between 60 and 100 °C	does not significantly decrease	–	–	–	–	–	–
CCN(CC)c1ccc2c(-c3ccccc3C(=O)O)c3ccc(=[N+](CC)CC)cc-3oc2c1.[Cl-] [rhodamine B]	–	–	580	440	73	do not vary or decrease	1.6	1.3
